In assay [1] the test system is Botrtyis cinerea (Bc). As to the kind of experiment: Growth inhibition assay of fungal pathogens, Bc. Particulars: 48 h. The class given is cell-based. The gist of the method:
(§1)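 Inhibition percentages reflect 48 h OD600 and visual scores relative to a 2% DMSO control. Test concentrations were 50, 10, 2 ppm or 2, 0.4, 0.08 ppm final, applied to spores in 17% V8 medium.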

Assay [2] relates to Rhizoctonia solani (Rs). The assay is described as follows: Growth inhibition assay of fungal pathogens, Rs. In kind it is cell-based. Particulars: 48 h.
Assay [3] deals with C. krusei. As to the kind of experiment: Antifungal Activity Assay (broth microtiter MIC), C. krusei. In kind it is cell-based, Candida krusei. The settings on record: Pichia kudriavzevii, ATCC6258, 48 h. The gist of the method:
(§2)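 CLSI M27-A3 broth microdilution in RPMI 1640+MOPS, final inoculum 2.5×10^3 CFU/mL from overnight Sabouraud cultures grown at 35 °C. MIC read visually at 48 h against growth control.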

In assay [4] the test system is Fusarium moniliforme (Fm). The assay is described as follows: Growth inhibition assay of fungal pathogens, Fm. In kind it is cell-based. The settings on record: for IC90: Fusarium verticillioides, 48 h, read-out: Concentration at 90% Inhibition Fm. The essentials:
as §1

Assay [5] deals with Fusarium virguliforme (Fv). The assay is described as follows: Growth inhibition assay of fungal pathogens, Fv. The class given is cell-based. Particulars: 48 h. The essentials:
as §1

In assay [6] the test system is C. parapsilosis. As to the kind of experiment: Antifungal Activity Assay (broth microtiter MIC), C. parapsilosis. The class given is cell-based, Candida parapsilosis. Particulars: Lodderomyces parapsilosis, ATCC22019, 48 h. The gist of the method: as §2
Assay [7] deals with fungal (fACC2) (UniProt Q00955). The settings on record: read-out: fACC2 (in vitro ACC2 Inhibition Assay, IC50), ADP-Glo, 5 nM ACC2, 20 μM ATP, 20 μM acetyl-CoA.
Assay [8] relates to Diplodia maydis (Dm). As to the kind of experiment: Growth inhibition assay of fungal pathogens, Dm. The class given is cell-based. The settings on record: Stenocarpella maydis, 48 h. The gist of the method: as §1
The test system of assay [9] is Septoria tritici (St). As to the kind of experiment: Growth inhibition assay of fungal pathogens, St. The class given is cell-based. Particulars: Zymoseptoria tritici, 48 h. The gist of the method:
as §1

For assay [10], the system named is C. albicans. The assay is described as follows: Antifungal Activity Assay (broth microtiter MIC), C. albicans. Particulars: Candida albicans, ATCC90028, 48 h. In kind it is cell-based, Candida albicans. The essentials: as §2
For assay [11], the system named is Collectotrichum graminicola (Cg). The assay is described as follows: Growth inhibition assay of fungal pathogens, Cg. Particulars: 48 h. In kind it is cell-based. The essentials:
as §1

[12] abbreviates: read-out: Concentration at 90% Inhibition Bc, Botrtyis cinerea, growth inhibition at 48 hours vs 2% DMSO control.
Where [13] appears, read: read-out: Concentration at 90% Inhibition Bc, Botrtyis cinerea, growth inhibition vs 2% DMSO control at 48 hours.
The mark [14] stands for this setting: read-out: Concentration at 90% Inhibition Rs, Rhizoctonia solani, mycelial plugs, growth inhibition at 48 hours vs 2% DMSO control.
Where [15] appears, read: read-out: Concentration at 90% Inhibition Rs, Rhizoctonia solani, mycelial plugs, growth inhibition vs 2% DMSO control at 48 hours.
[16] abbreviates: read-out: MIC, C. krusei ATCC 6258, Table 3a, 3 replicates, MIC recorded at 48 h.
The mark [17] stands for this setting: read-out: MIC, C. krusei ATCC 6258, Table 3b (additional results), 3 replicates, MIC recorded at 48 h.
The mark [18] stands for this setting: Fusarium moniliforme, growth inhibition at 48 hours vs 2% DMSO control.
Where [19] appears, read: read-out: Concentration at 90% Inhibition Fv, Fusarium virguliforme, growth inhibition at 48 hours vs 2% DMSO control.
Setting [20] is: read-out: Concentration at 90% Inhibition Fv, Fusarium virguliforme, growth inhibition vs 2% DMSO control at 48 hours.
Where [21] appears, read: read-out: MIC, C. parapsilosis ATCC 22019, Table 3a, 3 replicates, MIC recorded at 48 h.
Where [22] appears, read: read-out: MIC, C. parapsilosis ATCC 22019, Table 3b (additional results), 3 replicates, MIC recorded at 48 h.
Where [23] appears, read: read-out: Concentration at 90% Inhibition Dm, Diplodia maydis, growth inhibition at 48 hours vs 2% DMSO control.
[24] abbreviates: read-out: Concentration at 90% Inhibition Dm, Diplodia maydis, growth inhibition vs 2% DMSO control at 48 hours.
[25] abbreviates: read-out: Concentration at 90% Inhibition St, Septoria tritici, growth inhibition at 48 hours vs 2% DMSO control.
Where [26] appears, read: read-out: Concentration at 90% Inhibition St, Septoria tritici, growth inhibition vs 2% DMSO control at 48 hours.
Setting [27] is: read-out: MIC, C. albicans ATCC 90028, Table 3a, 3 replicates, MIC recorded at 48 h.
The mark [28] stands for this setting: read-out: MIC, C. albicans ATCC 90028, Table 3b (additional results), 3 replicates, MIC recorded at 48 h.
[29] abbreviates: read-out: Concentration at 90% Inhibition Cg, Collectotrichum graminicola, growth inhibition at 48 hours vs 2% DMSO control.
[30] abbreviates: read-out: Concentration at 90% Inhibition Cg, Collectotrichum graminicola, growth inhibition vs 2% DMSO control at 48 hours.

Values after ≈ are worked out from the molar mass of the structure shown. Like-named read-outs stand apart in the source and are kept apart here. Some results are limits rather than exact numbers.

Sequence of fungal (fACC2) (Q00955 whole entry): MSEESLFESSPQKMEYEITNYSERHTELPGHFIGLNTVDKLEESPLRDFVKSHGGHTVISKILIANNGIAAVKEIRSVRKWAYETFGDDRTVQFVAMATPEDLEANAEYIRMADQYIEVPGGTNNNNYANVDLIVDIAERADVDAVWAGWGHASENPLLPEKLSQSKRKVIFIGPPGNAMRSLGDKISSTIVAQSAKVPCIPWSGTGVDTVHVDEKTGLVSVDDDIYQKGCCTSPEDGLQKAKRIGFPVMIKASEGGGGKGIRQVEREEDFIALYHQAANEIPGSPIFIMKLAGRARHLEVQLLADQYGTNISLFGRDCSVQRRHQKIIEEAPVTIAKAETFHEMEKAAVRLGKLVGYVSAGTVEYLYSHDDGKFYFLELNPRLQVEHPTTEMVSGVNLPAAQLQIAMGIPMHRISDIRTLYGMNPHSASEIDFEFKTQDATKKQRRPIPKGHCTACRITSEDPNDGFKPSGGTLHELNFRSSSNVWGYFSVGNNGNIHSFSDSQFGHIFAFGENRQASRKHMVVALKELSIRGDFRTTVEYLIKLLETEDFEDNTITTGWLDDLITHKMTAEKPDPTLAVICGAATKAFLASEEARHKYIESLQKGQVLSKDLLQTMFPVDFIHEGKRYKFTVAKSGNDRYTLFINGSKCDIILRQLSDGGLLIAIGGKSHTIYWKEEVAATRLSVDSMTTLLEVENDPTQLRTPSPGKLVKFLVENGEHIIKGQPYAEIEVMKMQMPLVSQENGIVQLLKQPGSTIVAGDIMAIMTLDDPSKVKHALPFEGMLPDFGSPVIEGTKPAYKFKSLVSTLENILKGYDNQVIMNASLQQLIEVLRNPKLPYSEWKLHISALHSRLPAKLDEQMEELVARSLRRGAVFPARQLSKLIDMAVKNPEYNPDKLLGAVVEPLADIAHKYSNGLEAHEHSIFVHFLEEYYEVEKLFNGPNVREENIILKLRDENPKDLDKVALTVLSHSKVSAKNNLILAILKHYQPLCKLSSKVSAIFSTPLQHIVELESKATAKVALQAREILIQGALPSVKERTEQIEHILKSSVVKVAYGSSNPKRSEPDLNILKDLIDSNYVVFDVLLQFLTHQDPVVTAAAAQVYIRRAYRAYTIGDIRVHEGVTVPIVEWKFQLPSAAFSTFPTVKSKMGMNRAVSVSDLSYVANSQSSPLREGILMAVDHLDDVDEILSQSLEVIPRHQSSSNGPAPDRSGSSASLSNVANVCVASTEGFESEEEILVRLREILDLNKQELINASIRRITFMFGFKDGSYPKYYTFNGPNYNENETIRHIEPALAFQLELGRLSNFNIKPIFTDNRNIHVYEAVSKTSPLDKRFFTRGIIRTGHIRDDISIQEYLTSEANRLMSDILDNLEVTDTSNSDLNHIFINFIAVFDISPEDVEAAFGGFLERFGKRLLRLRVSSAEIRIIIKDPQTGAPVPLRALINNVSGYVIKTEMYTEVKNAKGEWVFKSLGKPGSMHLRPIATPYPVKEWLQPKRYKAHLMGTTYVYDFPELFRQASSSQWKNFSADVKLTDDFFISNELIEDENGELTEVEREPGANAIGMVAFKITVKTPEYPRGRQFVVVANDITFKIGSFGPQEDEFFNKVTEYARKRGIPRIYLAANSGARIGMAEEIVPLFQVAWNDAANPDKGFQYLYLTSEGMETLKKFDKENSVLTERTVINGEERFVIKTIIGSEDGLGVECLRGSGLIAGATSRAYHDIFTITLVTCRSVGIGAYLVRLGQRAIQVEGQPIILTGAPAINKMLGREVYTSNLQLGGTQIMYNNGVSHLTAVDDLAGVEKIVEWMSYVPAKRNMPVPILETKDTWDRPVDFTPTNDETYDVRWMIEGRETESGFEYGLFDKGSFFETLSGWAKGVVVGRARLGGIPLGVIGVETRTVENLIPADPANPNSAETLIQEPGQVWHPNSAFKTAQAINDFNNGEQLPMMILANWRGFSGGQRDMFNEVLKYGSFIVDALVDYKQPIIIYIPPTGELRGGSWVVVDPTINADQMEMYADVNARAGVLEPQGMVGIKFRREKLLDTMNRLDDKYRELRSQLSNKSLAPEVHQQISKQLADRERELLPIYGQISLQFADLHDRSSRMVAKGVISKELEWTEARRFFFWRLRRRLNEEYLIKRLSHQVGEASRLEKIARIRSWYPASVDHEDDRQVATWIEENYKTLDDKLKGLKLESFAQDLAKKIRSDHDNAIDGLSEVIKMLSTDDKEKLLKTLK

In general, MIC refers to the lowest concentration that inhibits growth of the organism. What is called IC50 is the concentration that gives 50% inhibition. On to `COc1ccc(F)cc1[C@H](Cn1c(=O)n(CC(=O)NC(C)C)c(=O)c2c(C)c(-n3nccn3)sc21)OC(C)C` [Compound I-35, (R)-2-(1-(2-(5-fluoro-2-methoxyphenyl)-2-isopropoxy-ethyl)-5-methyl-2,4-dioxo-6-(2H-1,2,3-triazol-2-yl)-1,4-dihydrothieno[2,3-d]pyrimidin-3(2H)-yl)-N-isopropylacetamide], for which the IC90 in assay [1] (setting [12]) turned out to be 0.4 µg/mL (≈ 0.716 µM); in [1] (setting [13]), 0.4 µg/mL (≈ 0.716 µM); in assay [2] (setting [14]), 2 µg/mL (≈ 3.58 µM); in [2] (setting [15]), 10 µg/mL (≈ 17.9 µM); in assay [4] it was 0.08 µg/mL (≈ 0.143 µM); in [5] (setting [19]), 0.4 µg/mL (≈ 0.716 µM). Further, the IC90 was 0.4 µg/mL (≈ 0.716 µM) in [5] (setting [20]); 0.4 µg/mL (≈ 0.716 µM) in assay [8] (setting [23]); 0.4 µg/mL (≈ 0.716 µM) in assay [8] (setting [24]); above 50 µg/mL in assay [9] (setting [25]); above 50 µg/mL in assay [9] (setting [26]); above 50 µg/mL in [11] (setting [29]). Besides, the IC90 in [11] (setting [30]) is above 50 µg/mL. Also, the MIC in assay [3] (setting [16]) was 2.1 to 4 µg/mL (≈ 3.76 to 7.16 µM); in [3] (setting [17]) it was above 4.01 µg/mL; in [6] (setting [21]) it was 2.1 to 4 µg/mL (≈ 3.76 to 7.16 µM); in assay [6] (setting [22]), 2.01 to 4 µg/mL (≈ 3.6 to 7.16 µM); in [10] (setting [27]), 2.1 to 4 µg/mL (≈ 3.76 to 7.16 µM); in assay [10] (setting [28]) it was 2.01 to 4 µg/mL (≈ 3.6 to 7.16 µM). Besides, in assay [4] (setting [18]), the “Concentration at 90% Inhibition Fm” value is on record as “AA (compound concentration of 0.08 ppm at 90% inhibition of fungal pathogens)”. Also, the IC50 was 1 to 5 nM in [7] (Table 2a) and 1 to 5 nM in [7] (Table 2b, additional results).
`CCO[C@@H](Cn1c(=O)n(C(C)(C)C(=O)N2CCCC2)c(=O)c2c(C)c(-n3nccn3)sc21)c1cc(F)ccc1OC` [Compound I-42, (R)-1-(2-ethoxy-2-(5-fluoro-2-methoxyphenyl)ethyl)-5-methyl-3-(2-methyl-1-oxo-1-(pyrrolidin-1-yl)propan-2-yl)-6-(2H-1,2,3-triazol-2-yl)thieno[2,3-d]pyrimidine-2,4(1H,3H)-dione]: the IC90 amounted to 0.4 µg/mL (≈ 0.684 µM) in assay [1] (Botrtyis cinerea, growth inhibition at 48 hours vs 2% DMSO control, read-out: Concentration at 90% Inhibition Bc); 0.4 µg/mL (≈ 0.684 µM) in [1] (Botrtyis cinerea, growth inhibition vs 2% DMSO control at 48 hours, read-out: Concentration at 90% Inhibition Bc); 0.4 µg/mL (≈ 0.684 µM) in assay [2] (mycelial plugs, growth inhibition at 48 hours vs 2% DMSO control, read-out: Concentration at 90% Inhibition Rs); 0.4 µg/mL (≈ 0.684 µM) in assay [2] (mycelial plugs, growth inhibition vs 2% DMSO control at 48 hours, read-out: Concentration at 90% Inhibition Rs); 0.08 µg/mL (≈ 0.137 µM) in [4] (setting [18]); 0.08 µg/mL (≈ 0.137 µM) in [4] (Fusarium moniliforme, growth inhibition vs 2% DMSO control at 48 hours). Besides, the IC90 in assay [5] (growth inhibition at 48 hours vs 2% DMSO control, read-out: Concentration at 90% Inhibition Fv) amounted to 0.08 µg/mL (≈ 0.137 µM); in [5] (growth inhibition vs 2% DMSO control at 48 hours, read-out: Concentration at 90% Inhibition Fv), 0.08 µg/mL (≈ 0.137 µM); in [8] (Diplodia maydis, growth inhibition at 48 hours vs 2% DMSO control, read-out: Concentration at 90% Inhibition Dm), 0.4 µg/mL (≈ 0.684 µM); in [8] (Diplodia maydis, growth inhibition vs 2% DMSO control at 48 hours, read-out: Concentration at 90% Inhibition Dm), 0.4 µg/mL (≈ 0.684 µM); in assay [9] (Septoria tritici, growth inhibition at 48 hours vs 2% DMSO control, read-out: Concentration at 90% Inhibition St), 2 µg/mL (≈ 3.42 µM); in assay [9] (Septoria tritici, growth inhibition vs 2% DMSO control at 48 hours, read-out: Concentration at 90% Inhibition St), 10 µg/mL (≈ 17.1 µM). Besides, the IC90 in assay [11] (Collectotrichum graminicola, growth inhibition at 48 hours vs 2% DMSO control, read-out: Concentration at 90% Inhibition Cg) was 0.08 µg/mL (≈ 0.137 µM); in assay [11] (Collectotrichum graminicola, growth inhibition vs 2% DMSO control at 48 hours, read-out: Concentration at 90% Inhibition Cg) it was 0.08 µg/mL (≈ 0.137 µM). Also, the MIC in assay [3] (Table 3a, ATCC 6258, 3 replicates, MIC recorded at 48 h, read-out: MIC, C. krusei ATCC 6258) lay within 0.25 to 1 µg/mL (≈ 0.428 to 1.71 µM); in assay [3] (Table 3b (additional results), ATCC 6258, 3 replicates, MIC recorded at 48 h, read-out: MIC, C. krusei ATCC 6258), 1.01 to 2 µg/mL (≈ 1.73 to 3.42 µM); in assay [6] (Table 3a, ATCC 22019, 3 replicates, MIC recorded at 48 h, read-out: MIC, C. parapsilosis ATCC 22019), 1.1 to 2 µg/mL (≈ 1.88 to 3.42 µM); in [6] (Table 3b (additional results), ATCC 22019, 3 replicates, MIC recorded at 48 h, read-out: MIC, C. parapsilosis ATCC 22019), 1.01 to 2 µg/mL (≈ 1.73 to 3.42 µM); in assay [10] (Table 3a, ATCC 90028, 3 replicates, MIC recorded at 48 h, read-out: MIC, C. albicans ATCC 90028) it was 1.1 to 2 µg/mL (≈ 1.88 to 3.42 µM); in [10] (Table 3b (additional results), ATCC 90028, 3 replicates, MIC recorded at 48 h, read-out: MIC, C. albicans ATCC 90028), 2.01 to 4 µg/mL (≈ 3.44 to 6.84 µM). The IC50 was 1 to 5 nM in [7] (Table 2a) and 1 to 5 nM in [7] (Table 2b, additional results).
For `COc1ccc(F)cc1[C@H](Cn1c(=O)n(C(C)(C)C(=O)NC(C)C)c(=O)c2c(C)c(-n3nccn3)sc21)OCCO` [Compound I-43, (R)-2-(1-(2-(5-fluoro-2-methoxyphenyl)-2-(2-hydroxyethoxy)ethyl)-5-methyl-2,4-dioxo-6-(2H-1,2,3-triazol-2-yl)-1,4-dihydrothieno[2,3-d]pyrimidin-3(2H)-yl)-N-isopropyl-2-methylpropanamide], the IC90 in assay [1] (setting [12]) came to 2 µg/mL (≈ 3.4 µM); in assay [1] (setting [13]) it was 2 µg/mL (≈ 3.4 µM); in [2] (setting [14]) it was 0.08 µg/mL (≈ 0.136 µM); in [2] (setting [15]), 0.08 µg/mL (≈ 0.136 µM); in assay [4] it was 0.08 µg/mL (≈ 0.136 µM); in assay [5] (setting [19]), 0.4 µg/mL (≈ 0.68 µM). For the same molecule, the IC90 in [5] (setting [20]) was found to be 0.4 µg/mL (≈ 0.68 µM); in [8] (setting [23]), 0.4 µg/mL (≈ 0.68 µM); in assay [8] (setting [24]), 0.4 µg/mL (≈ 0.68 µM); in assay [9] (setting [25]), 2 µg/mL (≈ 3.4 µM); in [9] (setting [26]) it was 10 µg/mL (≈ 17 µM); in [11] (setting [29]), 0.4 µg/mL (≈ 0.68 µM). Further, the IC90 in assay [11] (setting [30]) is 0.4 µg/mL (≈ 0.68 µM). Further, the MIC in assay [3] (setting [16]), in assay [3] (setting [17]), in assay [6] (setting [21]), in assay [6] (setting [22]), in assay [10] (setting [27]) and in [10] (setting [28]) was 0.25 to 1 µg/mL (≈ 0.425 to 1.7 µM) in each case. The “Concentration at 90% Inhibition Fm” value in [4] (setting [18]) is listed as “AA (compound concentration of 0.08 ppm at 90% inhibition of fungal pathogens)”. For the same molecule, the IC50 lay within 0.4 to 1 nM in assay [7] (Table 2a) and 0.3 to 1 nM in assay [7] (Table 2b, additional results).

Source of the values: patent US10800791B2, “Triazole ACC inhibitors and uses thereof” (Gilead Apollo, LLC, priority 2015, dated 2020).
